Test results as given in paper PMC6753081 (Nature Communications, 2019).

Tests used:
[1] = biological target: T1, A. fumigatus CN/FKBP12 complex (CnA/CnB/AfFKBP12) (Aspergillus fumigatus, UniProt Q4WDF2+Q4WLV6+Q4WUR1); conditions: ternary complex CnA/CnB-FK506-FKBP12; at the FKBP12-BBH/CnB interface, not the phosphatase active site
T1 construct: gene cnaA

FKBP12 (C. albicans) = biological target: T2, FKBP12 (C. albicans) (Candida albicans, UniProt P28870); assay type: binding; conditions: pH […] °C, […] phosphate, […] NaCl
T2 construct: gene RBP1; E. coli BL21(DE3), N-terminal 6xHis cut by thrombin, 15N/13C labelled, free FKBP12
T2 sequence (P28870 1-124): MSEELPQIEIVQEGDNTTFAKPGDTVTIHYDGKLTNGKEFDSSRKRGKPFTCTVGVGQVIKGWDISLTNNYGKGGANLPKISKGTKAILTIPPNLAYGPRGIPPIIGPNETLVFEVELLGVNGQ

[2] = biological target: T3, C. neoformans calcineurin catalytic subunit (CnA), residues 34-402 (C. neoformans, UniProt O42773 34-402); assay: crystal structure; conditions: both partners purified
T3 construct: also called calcineurin A
T3 sequence (O42773 34-402): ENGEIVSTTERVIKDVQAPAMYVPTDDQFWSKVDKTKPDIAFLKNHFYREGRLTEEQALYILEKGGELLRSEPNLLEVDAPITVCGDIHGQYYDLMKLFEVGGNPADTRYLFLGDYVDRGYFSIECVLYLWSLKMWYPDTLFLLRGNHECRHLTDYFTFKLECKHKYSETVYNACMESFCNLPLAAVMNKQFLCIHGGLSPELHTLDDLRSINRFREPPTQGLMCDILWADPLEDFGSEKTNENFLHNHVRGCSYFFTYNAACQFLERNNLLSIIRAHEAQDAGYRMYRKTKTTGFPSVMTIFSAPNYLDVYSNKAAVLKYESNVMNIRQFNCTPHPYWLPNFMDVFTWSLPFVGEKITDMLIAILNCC

T1 sequence (Q4WDF2 entry or part of it): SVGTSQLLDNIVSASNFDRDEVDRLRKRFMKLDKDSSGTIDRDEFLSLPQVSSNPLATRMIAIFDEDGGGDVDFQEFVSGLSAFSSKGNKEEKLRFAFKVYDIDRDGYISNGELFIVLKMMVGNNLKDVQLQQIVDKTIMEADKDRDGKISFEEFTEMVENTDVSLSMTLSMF
T1 sequence (Q4WUR1 2-370): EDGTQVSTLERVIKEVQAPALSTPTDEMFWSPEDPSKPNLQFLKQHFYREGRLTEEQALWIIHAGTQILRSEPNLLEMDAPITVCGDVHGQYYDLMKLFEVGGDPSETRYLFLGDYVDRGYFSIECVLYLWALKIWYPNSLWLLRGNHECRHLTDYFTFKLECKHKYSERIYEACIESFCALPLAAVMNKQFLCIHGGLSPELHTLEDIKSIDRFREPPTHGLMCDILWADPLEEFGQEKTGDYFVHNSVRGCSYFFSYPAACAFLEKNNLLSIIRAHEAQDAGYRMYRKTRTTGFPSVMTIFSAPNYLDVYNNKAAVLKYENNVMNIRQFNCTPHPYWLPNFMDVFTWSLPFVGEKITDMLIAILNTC
T1 sequence (Q4WLV6 2-112): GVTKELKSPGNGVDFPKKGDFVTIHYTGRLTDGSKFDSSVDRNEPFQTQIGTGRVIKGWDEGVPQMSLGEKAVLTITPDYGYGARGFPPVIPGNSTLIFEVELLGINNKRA

C=CC[C@@H]1/C=C(\C)C[C@H](C)C[C@H](OC)[C@H]2O[C@@](O)(C(=O)C(=O)N3CCCC[C@H]3C(=O)O[C@H](/C(C)=C/[C@@H]3CC[C@@H](O)[C@H](OC)C3)[C@H](C)[C@@H](O)CC1=O)[C@H](C)C[C@@H]2OC [FK506]
X-ray crystal structure, 2.50 Å [1]: A single copy of the complex was placed per asymmetric unit (PDB ID: 6TZ7) | NMR resonance assignment of apo and FK506-bound state (FKBP12 (C. albicans)): A. fumigatus and C. albicans were determined in both the apo and FK506 bound states

B1: C. neoformans calcineurin regulatory subunit (CnB), residues 1-175 (natural protein)
chain: MGAAESSMFNSLEKNSNFSGPELMRLKKRFMKLDKDGSGSIDKDEFLQIPQIANNPLAHRMIAIFDEDGSGTVDFQEFVGGLSAFSSKGGRDEKLRFAFKVYDMDRDGYISNGELYLVLKQMVGNNLKDQQLQQIVDKTIMEADKDGDGKLSFEEFTQMVASTDIVKQMTLEDLF
notes: also called calcineurin B
binding result [2]: binds
